Common to all, as to assay type: cell-based
The target in one assay is Mer (Homo sapiens (Human), UniProt Q12866). Briefly: Mer autophosphorylation ELISA in transient transfected 293A cells. As to conditions: cellular, MERTK-transfected 293A cells, phospho-Mer ELISA. As for the experimental part: 293A cells (Thermo Fisher #R70507) were seeded at 1.5×10^6 cells/well onto 100 mm dish (Greiner #664169), in DMEM (Thermo Fisher #11995-040) containing 10% FBS (Thermo Fisher #26140-079), 1% MEM NEAA (Thermo Fisher #11140-050), 1% GlutaMax (Thermo Fisher #35050-061), and 1% Penicillin Streptomycin (Thermo Fisher #15140-122). 293A cells were incubated at 37° C., 5% CO2 for 24 h and then transfected with 6 μg MERTK DNA (Genecopoeia #EX-Z8208-M02) using TransIT LT1 transfection reagent (Mirus-Bio #MIR2305). After 24 h incubation, the transfected 293A cells were seeded at 1×10^5 cells/well onto 96-well plates (Corning #3904) in DMEM growth medium overnight. Test compounds were serially diluted to produce an 8-point dose curve in fresh serum-free medium to a final concentration of 0.3% DMSO (vehicle) and added to the cells and incubated for 1 h. Cells were then immediately lysed with 150 μL of cold 1× lysis buffer [20 mM Tris, 137 mM sodium chloride, 2 mM EDTA, 10% glycerol, 1% NP-40 alternative, 1 mM activated sodium orthovanadate, 1 mM PefaBloc SC (Sigma-Aldrich #11429868001), protease/phosphatase inhibitor tablet (Thermo Fisher #A32959)]. Lysates were clarified by centrifugation and 50 μL/well added into the human phospho-Mer DuoSet IC ELISA (R&D Systems #DYC2579-2). Assay was performed according to manufacturer's instructions and sample phospho-Mer concentrations were extrapolated using human phospho-Mer control (R&D Systems #841793) as a standard. Positive control wells (100% activity) contained DMSO-treated cell lysates. Negative control wells (0% activity) contained reference inhibitor-treated cell lysates. IC50 values were calculated by nonlinear regression analysis using a 4-parameter logistic curve fit in ActivityBase XE (IDBS).
Chain of Mer (Q12866 21-999): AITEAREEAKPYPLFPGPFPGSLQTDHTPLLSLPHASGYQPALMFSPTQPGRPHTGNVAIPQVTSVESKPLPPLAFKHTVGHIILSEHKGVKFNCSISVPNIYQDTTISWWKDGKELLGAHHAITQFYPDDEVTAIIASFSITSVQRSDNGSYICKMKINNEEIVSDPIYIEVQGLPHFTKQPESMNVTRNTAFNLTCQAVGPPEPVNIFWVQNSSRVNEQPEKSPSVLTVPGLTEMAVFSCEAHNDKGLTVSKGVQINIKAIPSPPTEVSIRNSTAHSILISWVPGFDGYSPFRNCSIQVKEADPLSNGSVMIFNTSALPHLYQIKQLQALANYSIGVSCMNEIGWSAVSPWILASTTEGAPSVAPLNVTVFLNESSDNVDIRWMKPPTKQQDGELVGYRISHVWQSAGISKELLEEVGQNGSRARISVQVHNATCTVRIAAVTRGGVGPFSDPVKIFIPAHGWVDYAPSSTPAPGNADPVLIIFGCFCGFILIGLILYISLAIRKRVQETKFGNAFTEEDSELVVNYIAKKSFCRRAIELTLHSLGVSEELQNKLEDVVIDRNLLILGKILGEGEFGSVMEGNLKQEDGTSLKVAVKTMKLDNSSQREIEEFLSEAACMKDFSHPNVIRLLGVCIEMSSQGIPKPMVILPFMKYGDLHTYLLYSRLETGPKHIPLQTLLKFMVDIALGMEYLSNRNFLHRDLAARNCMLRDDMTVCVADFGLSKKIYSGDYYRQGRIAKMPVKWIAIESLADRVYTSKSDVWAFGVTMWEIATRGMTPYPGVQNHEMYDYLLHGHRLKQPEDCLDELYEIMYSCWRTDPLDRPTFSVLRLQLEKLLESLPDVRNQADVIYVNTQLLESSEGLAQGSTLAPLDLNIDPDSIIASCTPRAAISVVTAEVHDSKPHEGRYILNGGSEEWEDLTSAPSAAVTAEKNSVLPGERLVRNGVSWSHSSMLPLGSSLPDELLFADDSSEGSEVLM
On the technique in general: ELISA stands for enzyme-linked immunosorbent assay.

In a further assay the target is AXL (Homo sapiens (Human), UniProt P30530). Briefly: AXL autophosphorylation ELISA in A-172 cells. As to conditions: cellular, Gas6-stimulated, phospho-AXL ELISA. The procedure, abridged:
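A-172 glioblastoma cells, serum-starved 24 h, took compounds for 1 h (8-point curve, 0.3% DMSO) before 15 min stimulation with 1 μg/mL recombinant human Gas6. Lysate phospho-AXL measured by ELISA against a phospho-AXL standard, normalized to DMSO (100%) and reference inhibitor (0%); IC50 from 4-parameter logistic fit.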

The next assay addresses KDR (Homo sapiens (Human), UniProt P35968). Briefly: KDR autophosphorylation ELISA in HUVEC cells. As to conditions: cellular, VEGF165-stimulated, phospho-KDR ELISA. The essentials: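 Inhibition of VEGF165-induced KDR phosphorylation was determined in serum-starved HUVEC after 1 h compound pretreatment and 5 min stimulation with 100 ng/mL VEGF165. Lysate phospho-KDR was measured by ELISA; IC50 values came from a 4-parameter logistic fit of 8-point curves.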

Another assay has as its target Met (Homo sapiens (Human), UniProt P08581). Nature of the assay: Met autophosphorylation ELISA in PC-3 cells. The note with it: cellular, HGF-stimulated, phospho-Met ELISA, read-out: c-Met IC50. The essentials: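 PC-3 cells serum-starved 3 h were treated 1 h with an 8-point compound series (0.3% DMSO), then stimulated 10 min with 100 ng/mL human HGF. Phospho-Met (panTyr) in lysates was measured by sandwich ELISA against DMSO (100%) and reference-inhibitor (0%) controls, and IC50 came from a 4-parameter logistic fit.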

pIC50: −log10 of the molar value. Bounds are passed on as bounds.

The pIC50 is the negative decadic logarithm of the IC50, by convention in mol/L.

Chain of KDR (P35968 20-1356): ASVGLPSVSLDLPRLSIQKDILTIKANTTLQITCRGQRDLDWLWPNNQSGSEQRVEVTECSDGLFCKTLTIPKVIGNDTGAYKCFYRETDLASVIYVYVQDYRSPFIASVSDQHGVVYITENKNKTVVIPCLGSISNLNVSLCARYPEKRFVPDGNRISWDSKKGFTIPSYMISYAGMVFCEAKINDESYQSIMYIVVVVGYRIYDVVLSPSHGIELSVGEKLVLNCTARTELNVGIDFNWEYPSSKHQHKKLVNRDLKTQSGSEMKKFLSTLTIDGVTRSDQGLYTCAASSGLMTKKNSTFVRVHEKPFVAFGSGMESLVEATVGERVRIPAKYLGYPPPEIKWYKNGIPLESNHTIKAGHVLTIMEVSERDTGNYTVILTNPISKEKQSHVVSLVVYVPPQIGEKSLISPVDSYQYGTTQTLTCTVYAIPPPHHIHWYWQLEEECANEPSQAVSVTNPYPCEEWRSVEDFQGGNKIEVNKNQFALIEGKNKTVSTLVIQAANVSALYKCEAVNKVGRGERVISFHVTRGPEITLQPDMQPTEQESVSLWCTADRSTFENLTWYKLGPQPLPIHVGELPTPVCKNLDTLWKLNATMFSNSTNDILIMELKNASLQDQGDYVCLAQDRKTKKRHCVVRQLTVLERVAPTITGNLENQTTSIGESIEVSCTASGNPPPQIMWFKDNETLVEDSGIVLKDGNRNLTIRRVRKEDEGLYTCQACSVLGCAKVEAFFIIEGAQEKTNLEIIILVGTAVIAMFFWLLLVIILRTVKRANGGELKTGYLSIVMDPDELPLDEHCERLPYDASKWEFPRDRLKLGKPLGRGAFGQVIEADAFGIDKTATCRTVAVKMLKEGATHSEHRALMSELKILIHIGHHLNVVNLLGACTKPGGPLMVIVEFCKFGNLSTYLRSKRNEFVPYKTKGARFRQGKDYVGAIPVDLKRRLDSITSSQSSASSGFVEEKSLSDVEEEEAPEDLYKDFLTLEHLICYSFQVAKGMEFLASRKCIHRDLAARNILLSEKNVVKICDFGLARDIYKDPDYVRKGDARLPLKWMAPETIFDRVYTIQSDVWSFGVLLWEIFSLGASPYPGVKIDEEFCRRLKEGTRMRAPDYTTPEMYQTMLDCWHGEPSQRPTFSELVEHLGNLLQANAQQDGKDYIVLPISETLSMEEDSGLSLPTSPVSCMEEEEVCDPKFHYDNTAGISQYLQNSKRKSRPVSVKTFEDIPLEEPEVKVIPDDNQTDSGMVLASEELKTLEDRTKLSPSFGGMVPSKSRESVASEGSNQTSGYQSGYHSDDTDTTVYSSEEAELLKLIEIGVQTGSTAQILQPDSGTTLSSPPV
Chain of Met (P08581 25-1390): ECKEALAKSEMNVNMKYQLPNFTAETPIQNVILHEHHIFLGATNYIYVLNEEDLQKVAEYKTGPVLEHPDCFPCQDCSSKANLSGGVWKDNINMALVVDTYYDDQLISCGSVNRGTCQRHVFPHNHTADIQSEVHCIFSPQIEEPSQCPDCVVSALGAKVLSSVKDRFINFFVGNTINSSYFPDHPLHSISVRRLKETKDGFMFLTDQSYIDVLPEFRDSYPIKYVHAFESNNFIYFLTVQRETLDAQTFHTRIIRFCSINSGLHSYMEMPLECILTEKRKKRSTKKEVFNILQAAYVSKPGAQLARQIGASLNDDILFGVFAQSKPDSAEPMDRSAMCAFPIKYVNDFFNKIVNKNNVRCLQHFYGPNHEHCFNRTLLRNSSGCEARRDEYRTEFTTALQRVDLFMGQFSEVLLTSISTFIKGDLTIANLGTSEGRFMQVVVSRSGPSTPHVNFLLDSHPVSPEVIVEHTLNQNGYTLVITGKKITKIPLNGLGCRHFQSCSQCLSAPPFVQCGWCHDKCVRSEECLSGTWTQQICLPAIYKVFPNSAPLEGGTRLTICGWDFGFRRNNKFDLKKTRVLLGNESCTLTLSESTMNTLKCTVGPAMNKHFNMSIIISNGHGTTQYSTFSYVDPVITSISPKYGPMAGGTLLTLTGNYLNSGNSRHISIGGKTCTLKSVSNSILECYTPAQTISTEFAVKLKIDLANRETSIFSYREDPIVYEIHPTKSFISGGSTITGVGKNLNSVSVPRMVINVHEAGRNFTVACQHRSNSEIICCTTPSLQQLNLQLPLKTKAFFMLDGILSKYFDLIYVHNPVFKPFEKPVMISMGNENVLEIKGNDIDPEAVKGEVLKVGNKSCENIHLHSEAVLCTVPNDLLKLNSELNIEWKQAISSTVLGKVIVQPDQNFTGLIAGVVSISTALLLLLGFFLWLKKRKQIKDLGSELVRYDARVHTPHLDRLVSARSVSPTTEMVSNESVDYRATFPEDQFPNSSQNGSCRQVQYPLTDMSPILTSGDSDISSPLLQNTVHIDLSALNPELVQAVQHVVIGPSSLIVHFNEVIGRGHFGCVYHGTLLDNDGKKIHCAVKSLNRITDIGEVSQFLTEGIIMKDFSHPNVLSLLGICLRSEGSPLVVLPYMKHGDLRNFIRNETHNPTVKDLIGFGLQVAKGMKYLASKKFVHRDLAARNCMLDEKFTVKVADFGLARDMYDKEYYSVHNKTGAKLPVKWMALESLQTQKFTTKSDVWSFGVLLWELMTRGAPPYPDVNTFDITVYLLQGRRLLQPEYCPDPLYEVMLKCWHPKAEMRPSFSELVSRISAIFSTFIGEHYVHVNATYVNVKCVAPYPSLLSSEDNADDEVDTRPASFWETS
Chain of AXL (P30530 26-894): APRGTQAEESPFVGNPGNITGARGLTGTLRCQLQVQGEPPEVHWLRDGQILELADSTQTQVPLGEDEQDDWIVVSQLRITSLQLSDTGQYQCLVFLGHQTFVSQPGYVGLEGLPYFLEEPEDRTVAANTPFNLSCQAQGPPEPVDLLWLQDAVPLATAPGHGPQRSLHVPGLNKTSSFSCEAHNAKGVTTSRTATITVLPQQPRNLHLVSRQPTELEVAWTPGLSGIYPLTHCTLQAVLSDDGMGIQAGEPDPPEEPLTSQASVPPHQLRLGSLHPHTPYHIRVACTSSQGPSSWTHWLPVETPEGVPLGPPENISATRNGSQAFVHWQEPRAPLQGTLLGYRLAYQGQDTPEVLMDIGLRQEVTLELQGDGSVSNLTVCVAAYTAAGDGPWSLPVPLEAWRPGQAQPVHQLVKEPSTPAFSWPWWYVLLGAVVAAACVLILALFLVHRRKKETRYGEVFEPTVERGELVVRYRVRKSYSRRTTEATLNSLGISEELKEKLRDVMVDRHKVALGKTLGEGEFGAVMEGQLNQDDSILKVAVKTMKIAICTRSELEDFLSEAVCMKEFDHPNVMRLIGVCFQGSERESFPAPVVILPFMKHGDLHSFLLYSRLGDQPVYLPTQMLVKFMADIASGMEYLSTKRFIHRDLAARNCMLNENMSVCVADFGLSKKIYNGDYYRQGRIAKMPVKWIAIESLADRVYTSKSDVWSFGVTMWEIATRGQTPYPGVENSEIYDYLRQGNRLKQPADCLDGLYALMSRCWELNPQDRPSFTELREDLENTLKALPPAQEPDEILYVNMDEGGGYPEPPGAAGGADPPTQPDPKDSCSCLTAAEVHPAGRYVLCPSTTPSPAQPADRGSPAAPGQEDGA

For the molecule `COc1cc2nccc(Oc3ncc(NC(=O)C4(C(=O)Nc5ccc(F)cc5)CC4)cc3Cl)c2cc1-c1ncco1` [Compound 64, 1-N′-[5-Chloro-6-[7-methoxy-6-(1,3-oxazol-2-yl)quinolin-4-yl]oxypyridin-3-yl]-1-N-(4-fluorophenyl)cyclopropane-1,1-dicarboxamide], the pIC50 against Mer was 7.00 to 8.00; against AXL it was at least 8.00; against KDR, under 6.52; on Met it was 7.00 to 8.00.

As for `COc1nc2c(Oc3ncc(NC(=O)C4(C(=O)Nc5ccc(F)cc5)CC4)cc3F)ccnc2cc1OCC(N)=O` [Compound 124, 1-N′-[6-[[7-(2-Amino-2-oxoethoxy)-6-methoxy-1,5-naphthyridin-4-yl]oxy]-5-fluoropyridin-3-yl]-1-N-(4-fluorophenyl)cyclopropane-1,1-dicarboxamide], the pIC50 at Mer is 6.52 to 7.00; against AXL, 6.52 to 7.00; against KDR it was under 6.52; on Met, 6.52 to 7.00.

In the case of `COc1cc2nccc(Oc3nc(F)c(NC(=O)C4(C(=O)Nc5ccc(F)cc5)CC4)cc3F)c2nc1OC` [Compound 96, 1-N′-[6-[(6,7-Dimethoxy-1,5-naphthyridin-4-yl)oxy]-2,5-difluoropyridin-3-yl]-1-N-(4-fluorophenyl)cyclopropane-1,1-dicarboxamide], the pIC50 on Mer was 7.00 to 8.00; against AXL, at least 8.00; at KDR it was under 6.52; at Met, 7.00 to 8.00.

Turning to `COc1cc2nccc(Oc3ncc(NC(=O)C4(C(=O)Nc5ccc(F)cc5)CC4)cc3F)c2cc1-c1ncc[nH]1` [Compound 72, 1-N′-[5-Fluoro-6-[6-(1H-imidazol-2-yl)-7-methoxyquinolin-4-yl]oxypyridin-3-yl]-1-N-(4-fluorophenyl)cyclopropane-1,1-dicarboxamide], the pIC50 against Mer was 7.00 to 8.00; against AXL, at least 8.00; against KDR, under 6.52; at Met it was 7.00 to 8.00.

`COc1cc2nccc(Oc3ncc(NC(=O)C4(C(=O)Nc5ccc(F)cc5)CC4)cc3Cl)c2cc1-c1ncc[nH]1` [Compound 71, 1-N′-[5-Chloro-6-[6-(1H-imidazol-2-yl)-7-methoxyquinolin-4-yl]oxypyridin-3-yl]-1-N-(4-fluorophenyl)cyclopropane-1,1-dicarboxamide]: the pIC50 on Mer is 7.00 to 8.00; against AXL it was 7.00 to 8.00; on KDR, under 6.52; at Met, 7.00 to 8.00.

As to `COc1nc2c(Oc3ncc(NC(=O)C4(C(=O)Nc5ccc(F)cc5)CC4)cc3F)ccnc2cc1OCCCN1CCOCC1` [Compound 122, 1-N′-[5-Fluoro-6-[[6-methoxy-7-(3-morpholin-4-ylpropoxy)-1,5-naphthyridin-4-yl]oxy]pyridin-3-yl]-1-N-(4-fluorophenyl)cyclopropane-1,1-dicarboxamide], the pIC50 is 7.00 to 8.00 on Mer, 7.00 to 8.00 on AXL, under 6.52 at KDR and 7.00 to 8.00 at Met.

Turning to `COc1nc2c(Oc3ncc(NC(=O)C4(C(=O)Nc5ccc(F)cc5)CC4)cc3F)ccnc2cc1OCC(O)CO` (stereo not drawn) [Compound 127, 1-N′-[6-[[7-(2,3-Dihydroxypropoxy)-6-methoxy-1,5-naphthyridin-4-yl]oxy]-5-fluoropyridin-3-yl]-1-N-(4-fluorophenyl)cyclopropane-1,1-dicarboxamide], the pIC50 was 6.52 to 7.00 at Mer, 7.00 to 8.00 on AXL, under 6.52 at KDR and 7.00 to 8.00 on Met.

With `COc1cc2nccc(Oc3ccc(NC(=O)C4(C(=O)Nc5ccc(F)cc5)CC4)c(OC)n3)c2nc1OC` [Compound 86, 1-N′-[6-[(6,7-Dimethoxy-1,5-naphthyridin-4-yl)oxy]-2-methoxypyridin-3-yl]-1-N-(4-fluorophenyl)cyclopropane-1,1-dicarboxamide], the pIC50 at Mer was 7.00 to 8.00; at AXL, 7.00 to 8.00; against KDR, under 6.52; at Met, 6.52 to 7.00.

As for `CNC(=O)c1cc2c(Oc3ncc(NC(=O)C4(C(=O)Nc5ccc(F)cc5)CC4)cc3Cl)ccnc2cc1OCCO` [Compound 37, 1-N′-[5-Chloro-6-[7-(2-hydroxyethoxy)-6-(methylcarbamoyl)quinolin-4-yl]oxypyridin-3-yl]-1-N-(4-fluorophenyl)cyclopropane-1,1-dicarboxamide], the pIC50 is 6.52 to 7.00 on Mer, 7.00 to 8.00 against AXL, under 6.52 at KDR and 7.00 to 8.00 on Met.

On to `COc1cc2nccc(Oc3ncc(NC(=O)C4(C(=O)Nc5ccc(F)cc5)CC4)cc3Cl)c2cc1-c1nnco1` [Compound 68, 1-N′-[5-Chloro-6-[7-methoxy-6-(1,3,4-oxadiazol-2-yl)quinolin-4-yl]oxypyridin-3-yl]-1-N-(4-fluorophenyl)cyclopropane-1,1-dicarboxamide], for which the pIC50 was 7.00 to 8.00 at Mer, 7.00 to 8.00 against AXL, under 6.52 at KDR and 7.00 to 8.00 at Met.

For the molecule `CCNC(=O)c1cc2c(Oc3ncc(NC(=O)C4(C(=O)Nc5ccc(F)cc5)CC4)cc3Cl)ccnc2cc1OC` [Compound 20, 1-N′-[5-Chloro-6-[6-(ethylcarbamoyl)-7-methoxyquinolin-4-yl]oxypyridin-3-yl]-1-N-(4-fluorophenyl)cyclopropane-1,1-dicarboxamide], the pIC50 against Mer was 7.00 to 8.00; at AXL, 7.00 to 8.00; against KDR it was under 6.52; on Met, 7.00 to 8.00.

On to `CNC(=O)c1cc2c(Oc3ncc(NC(=O)C4(C(=O)Nc5ccc(F)cc5)CC4)cc3Cl)ccnc2cc1OCC(C)O` (stereo not drawn) [Compound 50, 1-N′-[5-Chloro-6-[7-(2-hydroxypropoxy)-6-(methylcarbamoyl)-quinolin-4-yl]oxypyridin-3-yl]-1-N-(4-fluorophenyl)cyclopropane-1,1-dicarboxamide], for which the pIC50 against Mer is 7.00 to 8.00; against AXL it was 7.00 to 8.00; against KDR, under 6.52; on Met, 7.00 to 8.00.

As for `COc1ccc(COc2cc3nccc(Oc4ncc(NC(=O)C5(C(=O)Nc6ccc(F)cc6)CC5)cc4F)c3nc2OC)cc1` [Compound 120, 1-N′-[5-Fluoro-6-[[6-methoxy-7-[(4-methoxyphenyl)methoxy]-1,5-naphthyridin-4-yl]oxy]pyridin-3-yl]-1-N-(4-fluorophenyl)cyclopropane-1,1-dicarboxamide], the pIC50 was under 6.52 against Mer, 6.52 to 7.00 at AXL, under 6.52 on KDR and 6.52 to 7.00 at Met.

Regarding `COc1cc2nccc(Oc3ccc(NC(=O)C4(C(=O)Nc5ccc(F)cc5)CC4)c(C)n3)c2nc1OC` [Compound 87, 1-N′-[6-[(6,7-Dimethoxy-1,5-naphthyridin-4-yl)oxy]-2-methylpyridin-3-yl]-1-N-(4-fluorophenyl)cyclopropane-1,1-dicarboxamide], the pIC50 was under 6.52 at Mer, 7.00 to 8.00 at AXL, under 6.52 against KDR and under 6.52 on Met.

Consider `COc1nc2c(Oc3ncc(NC(=O)C4(C(=O)Nc5ccc(F)cc5)CC4)cc3F)ccnc2cc1OCCCN(C)C` [Compound 125, 1-N′-[6-[[7-[3-(Dimethylamino)propoxy]-6-methoxy-1,5-naphthyridin-4-yl]oxy]-5-fluoropyridin-3-yl]-1-N-(4-fluorophenyl)cyclopropane-1,1-dicarboxamide], for which the pIC50 against Mer was 7.00 to 8.00; on AXL, 7.00 to 8.00; on KDR, under 6.52; on Met, 7.00 to 8.00.

These data come from patent publication US11673897B2, “Compounds for the treatment of kinase-dependent disorders” (Exelixis, Inc., priority 2018, dated 2023).
